In PubChem BioAssay (NCI) one finds GI50 and TGI data, which are given here for twelve compounds.

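Grown in 96-well plates, cells were treated for 48 hours with each compound at five concentrations. Insufficient inhibition: endpoint recorded as highest concentration tested. At the GI50, growth is halved. TGI: concentration producing complete growth inhibition.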

Some test systems named below: 786-0 renal; HCC-2998 colon; HCT-15 colon; MOLT-4 leukemia; NCI-H460 lung; OVCAR-5 ovarian; RXF 393 renal; U251 CNS; UACC-257 melanoma; SF-539 CNS.
Assay in all cases: DTP human tumour cell line panel, 48 h

One may read the GI50 as the concentration giving 50% growth inhibition. For orientation: TGI means the concentration giving total growth inhibition. Low values mean more potent growth arrest, high ones less potent growth arrest. Take `COc1cc(/C=C2\CC3C4CCC5=CC(=O)CC[C@]5(C)C4CC[C@]3(C)C2=O)ccc1OCCN1CCCCC1` (stereo partly drawn): the GI50 is 1.92 µM in the experiment with 786-0 renal; 3.26 µM in the experiment with HCC-2998 colon; 3.9 µM in the experiment on HCT-15 colon; 2.73 µM in the experiment with MOLT-4 leukemia; 3.43 µM in the experiment on NCI-H460 lung; 8.26 µM in the experiment with OVCAR-5 ovarian. The GI50 was 2.58 µM in the experiment on RXF 393 renal, 3.2 µM with U251 CNS and 4.8 µM with UACC-257 melanoma. Besides, the concentration for total growth inhibition (TGI) with 786-0 renal was 4.21 µM; in the experiment with HCC-2998 colon it was 12.5 µM; with HCT-15 colon, 16 µM; in the experiment with MOLT-4 leukemia, 75.2 µM; in the experiment with NCI-H460 lung it was 14.1 µM; with OVCAR-5 ovarian, 28.5 µM. Further, the results for the total growth inhibition concentration (TGI) in the experiment on RXF 393 renal, with U251 CNS and with UACC-257 melanoma were 10.4 µM, 11.2 µM and 18.4 µM, respectively.
Take `O=c1sc(-c2nc3ccccc3[nH]2)c(/N=C/c2ccccc2)n1-c1ccccc1`: the TGI in the experiment with 786-0 renal, with HCC-2998 colon, with HCT-15 colon, in the experiment with MOLT-4 leukemia, in the experiment with OVCAR-5 ovarian and with RXF 393 renal was above 100 µM throughout. Also, the TGI in the experiment with SF-539 CNS, in the experiment on U251 CNS and in the experiment on UACC-257 melanoma was above 100 µM each time.
As for `COc1cc([C@@H]2c3cc4c(cc3[C@@H](NC(=O)c3ccc(OC(C)=O)cc3)C3COC(=O)[C@@H]32)OCO4)cc(OC)c1O` (stereo partly drawn), the concentration for total growth inhibition (TGI) in the experiment with 786-0 renal turned out to be 3.47 µM; in the experiment with HCC-2998 colon, 14.7 µM; with HCT-15 colon, 24.4 µM; in the experiment on MOLT-4 leukemia, 2.93 µM; in the experiment with OVCAR-5 ovarian it was 22.4 µM; in the experiment with RXF 393 renal, 36.3 µM. For the same compound, the figures for the total growth inhibition concentration (TGI) with SF-539 CNS, with U251 CNS and with UACC-257 melanoma were 3.14 µM, 2.75 µM and 31.9 µM, respectively.
In the case of `COC(=O)C1=Cc2cn(S(=O)(=O)c3ccc(C)cc3)c3cccc(c23)C(C=C(C)C)N1C(C)=O` (stereo not drawn), the TGI with 786-0 renal is above 100 µM; in the experiment on HCC-2998 colon it was above 100 µM; in the experiment on MOLT-4 leukemia, 44.9 µM; with OVCAR-5 ovarian, above 100 µM; with RXF 393 renal it was above 100 µM; in the experiment on SF-539 CNS, above 100 µM. Further, the TGI with U251 CNS and in the experiment on UACC-257 melanoma was above 100 µM throughout.
For the compound `Cc1cc(C)c(C2=NO[C@@H]3C(=O)N(c4ccc(Cc5ccc(N6C(=O)[C@H]7C(c8c(C)cc(C)cc8C)=NO[C@H]7C6=O)cc5)cc4)C(=O)[C@H]23)c(C)c1`, the TGI in the experiment with 786-0 renal, in the experiment with HCC-2998 colon, in the experiment on HCT-15 colon, in the experiment on MOLT-4 leukemia, in the experiment on OVCAR-5 ovarian and with RXF 393 renal was above 100 µM throughout. The TGI in the experiment with SF-539 CNS and in the experiment on UACC-257 melanoma was above 100 µM each time.
Turning to `C1C[S][Ge]2([S]CCS1)[S]CCSCC[S]2`, the GI50 in the experiment on 786-0 renal, with HCC-2998 colon, with HCT-15 colon, in the experiment with MOLT-4 leukemia and in the experiment on SF-539 CNS was above 100 µM each time. For the same compound, the TGI in the experiment with 786-0 renal, in the experiment with HCC-2998 colon, in the experiment with HCT-15 colon, in the experiment with MOLT-4 leukemia and in the experiment with SF-539 CNS was above 100 µM throughout.
On to `O=C(Nc1ccc(Cl)cc1)c1cc2ccccc2cc1OP(=O)(O)O`, for which the GI50 in the experiment with 786-0 renal is 3.59 µM; in the experiment on HCC-2998 colon, 4.19 µM; in the experiment with HCT-15 colon it was 3.55 µM; in the experiment with MOLT-4 leukemia, 24.8 µM; with NCI-H460 lung, 3.43 µM; in the experiment on OVCAR-5 ovarian, 6.51 µM. In addition, the GI50 with RXF 393 renal was 6.64 µM; in the experiment with SF-539 CNS, 4.4 µM; in the experiment on U251 CNS, 3.74 µM. The TGI is 13.4 µM with 786-0 renal; 29.9 µM in the experiment on HCC-2998 colon; above 100 µM in the experiment with HCT-15 colon; above 100 µM with MOLT-4 leukemia; 16.8 µM in the experiment with NCI-H460 lung; 42.3 µM in the experiment with OVCAR-5 ovarian. For the same compound, the TGI was 71.1 µM in the experiment on RXF 393 renal, 19.2 µM in the experiment on SF-539 CNS and 21.3 µM in the experiment on U251 CNS.
On to `COc1ccc2c(c1)CC1N(C)CCC13CCCCC23` (stereo not drawn), for which the concentration for total growth inhibition (TGI) with 786-0 renal, in the experiment on HCC-2998 colon, in the experiment on HCT-15 colon, in the experiment with MOLT-4 leukemia, in the experiment with NCI-H460 lung and in the experiment with OVCAR-5 ovarian was above 100 µM each time. Moreover, the TGI in the experiment on RXF 393 renal, in the experiment on U251 CNS and in the experiment on UACC-257 melanoma was above 100 µM each time.
Regarding `C=CCn1c(=O)c(C(=O)NC(=O)OCC)cn(C2CCCCC2)c1=O`, the TGI with 786-0 renal, in the experiment with HCC-2998 colon, with HCT-15 colon, in the experiment with MOLT-4 leukemia, in the experiment with NCI-H460 lung and in the experiment on OVCAR-5 ovarian was above 100 µM in each case. Further, the TGI in the experiment with SF-539 CNS, with U251 CNS and with UACC-257 melanoma was above 100 µM throughout.
In the case of `COc1cc(=O)oc(/C=C/CO)c1C`, the TGI in the experiment on 786-0 renal, in the experiment with HCC-2998 colon, with MOLT-4 leukemia, in the experiment on OVCAR-5 ovarian, with RXF 393 renal and in the experiment with SF-539 CNS was above 100 µM throughout. Besides, the TGI in the experiment with U251 CNS and in the experiment on UACC-257 melanoma was above 100 µM in each case.
In the case of `COc1cc(OC)c(/C=C/C(=O)c2c(O)cc(OC)c(C3CCN(C)CC3)c2OC)c(OC)c1`, the GI50 with 786-0 renal was 1.42 µM; with HCC-2998 colon, 1.46 µM; in the experiment with HCT-15 colon, 1.31 µM; in the experiment with MOLT-4 leukemia, 1.63 µM; with OVCAR-5 ovarian, 1.48 µM; with RXF 393 renal, 1.76 µM. Besides, the figures for the GI50 in the experiment on SF-539 CNS, with U251 CNS and in the experiment with UACC-257 melanoma were 1.69 µM, 1.27 µM and 1.46 µM, respectively. In addition, the TGI in the experiment with 786-0 renal came out at 2.72 µM; in the experiment with HCC-2998 colon it was 2.82 µM; with HCT-15 colon, 2.8 µM; in the experiment with MOLT-4 leukemia it was 3.61 µM; in the experiment with OVCAR-5 ovarian, 2.84 µM; in the experiment on RXF 393 renal, 3.3 µM. Besides, the TGI in the experiment with SF-539 CNS came out at 3.12 µM; with U251 CNS, 2.52 µM; in the experiment with UACC-257 melanoma it was 2.77 µM.
For the compound `CSc1nc(SC)c2c(C)cn(C3OC(C)C(O)C(O)C3O)c2n1` (stereo not drawn), the TGI in the experiment on 786-0 renal, in the experiment on HCC-2998 colon, in the experiment on HCT-15 colon, in the experiment on MOLT-4 leukemia, in the experiment with NCI-H460 lung and in the experiment with OVCAR-5 ovarian was above 100 µM each time. Besides, the TGI in the experiment with RXF 393 renal, with SF-539 CNS and in the experiment with U251 CNS was above 100 µM in each case.
